Assays:
Erigeron canadensis [1] = test: Herbicidal activity against compound-sensitive Conyza canadensis (horseweed) under greenhouse condition assessed as fresh weight at 1.68 kg ae/ha measured 21 days post treatment relative to untreated control
Erigeron canadensis [2] = test: Herbicidal activity against compound-resistant Conyza canadensis (horseweed) isolate 2 under greenhouse condition at 1.68 kg ae/ha measured 7 days post treatment relative to control; format: functional
Erigeron canadensis [3] = test: Herbicidal activity against compound-sensitive Conyza canadensis (horseweed) under greenhouse condition at 1.25 kg ae/ha measured 14 days post treatment relative to control; format: functional
Erigeron canadensis [4] = test: Herbicidal activity against compound-resistant Conyza canadensis (horseweed) isolate 1 under greenhouse condition assessed as fresh weight at 0.84 kg ae/ha measured 21 days post treatment relative to untreated control
Erigeron canadensis [5] = test: Herbicidal activity against compound-resistant Conyza canadensis (horseweed) isolate 2 under greenhouse condition assessed as fresh weight at 1.25 kg ae/ha measured 21 days post treatment relative to untreated control
Erigeron canadensis [6] = test: Herbicidal activity against compound-resistant Conyza canadensis (horseweed) isolate 2 under greenhouse condition at 0.84 kg ae/ha measured 7 days post treatment relative to control; format: functional
Erigeron canadensis [7] = test: Herbicidal activity against compound-resistant Conyza canadensis (horseweed) isolate 1 under greenhouse condition at 1.68 kg ae/ha measured 7 days post treatment relative to control; format: functional
Erigeron canadensis [8] = test: Herbicidal activity against compound-resistant Conyza canadensis (horseweed) isolate 2 under greenhouse condition at 9 kg ae/ha measured 7 days post treatment relative to control; format: functional
Erigeron canadensis [9] = test: Herbicidal activity against compound-sensitive Conyza canadensis (horseweed) under greenhouse condition at 1.25 kg ae/ha measured 21 days post treatment relative to control; format: functional
Erigeron canadensis [10] = test: Herbicidal activity against compound-sensitive Conyza canadensis (horseweed) under greenhouse condition at 1.68 kg ae/ha measured 21 days post treatment relative to control; format: functional
Erigeron canadensis [11] = test: Herbicidal activity against compound-resistant Conyza canadensis (horseweed) isolate 1 under greenhouse condition at 9 kg ae/ha measured 7 days post treatment relative to control; format: functional
Erigeron canadensis [12] = test: Herbicidal activity against compound-resistant Conyza canadensis (horseweed) isolate 1 under greenhouse condition at 0.84 kg ae/ha measured 7 days post treatment relative to control; format: functional
Erigeron canadensis [13] = test: Herbicidal activity against compound-sensitive Conyza canadensis (horseweed) under greenhouse condition assessed as fresh weight at 1.25 kg ae/ha measured 21 days post treatment relative to untreated control
Erigeron canadensis [14] = test: Herbicidal activity against compound-resistant Conyza canadensis (horseweed) isolate 1 under greenhouse condition at 2.52 kg ae/ha measured 21 days post treatment relative to control; format: functional

O=C(O)CNCP(=O)(O)O [GLYPHOSATE]
level, % of control (Erigeron canadensis [1]): 1% | Activity (Erigeron canadensis [2]): 50% | Activity (Erigeron canadensis [3]): 92% | level, % of control (Erigeron canadensis [4]): 94% | level, % of control (Erigeron canadensis [5]): 73% | Activity (Erigeron canadensis [6]): 23% | Activity (Erigeron canadensis [7]): 40% | Activity (Erigeron canadensis [8]): 73% | Activity (Erigeron canadensis [9]): 90% | Activity (Erigeron canadensis [10]): 99% | Activity (Erigeron canadensis [11]): 80% | Activity (Erigeron canadensis [12]): 20% | level, % of control (Erigeron canadensis [13]): 19% | Activity (Erigeron canadensis [14]): 59%

From ChEMBL document CHEMBL3045777, “Response of selected horseweed (Conyza canadensis (L.) Cronq.) populations to glyphosate” (2004)
